These results are taken from patent US20260083722A1, “BIFUNCTIONAL DEGRADERS COMPRISING ELECTROPHILIC PROTACS THAT ENGAGE DCAF1 AND PHARMACEUTICAL COMPOSITIONS COMPRISING THE SAME” (THE SCRIPPS RESEARCH INSTITUTE, priority 2022, published 2026).

Structures are written as SMILES.

The assay has as its target T1, HA-FKBP12 (Homo sapiens, UniProt P62942).
T1 construct: expressed in transfected cells; host or cells: HEK293T
Description: ubiquitination of immunoprecipitated HA-FKBP12 in HEK293T cells. It counts as cell-based. Here is the method:
(A) Left, western blots showing effects of YT47R and YT47S on the immunoprecipitation (IP) of FLAG-DCAF1-WT or FLAG-DCAF1-C1113A with HA-FKBP12 in HEK293T cells co-expressing these proteins. Cells were treated with YT47R or YT47S (5 μM) for 2 h in the presence of MG132 (10 μM) prior to lysis and IP with an anti-HA antibody and western blotting for the indicated proteins (DCAF1, FKBP12, and ubiquitinated protein). Right, bar graphs quantifying DCAF1 (top) and ubiquitination (Ub) (bottom) in the indicated IP groups. (B) Left, western blots showing effects of YT47R and YT47S on the IP of endogenous DCAF1 with HA-FKBP12 in HEK293T cells expressing HA-FKBP12. […] Right, bar graph quantifying DCAF1 in the indicated IP groups. […] Statistical significance was calculated with unpaired two-tailed Student's t-tests comparing YT41R/YT47R- and DMSO-treated cells. **P<0.01, ****P<0.0001. (C) MS-ABPP quantification of IA-DTB labeling of the indicated cysteines in DCAF1 from FLAG-DCAF1-WT-expressing HEK293T cells treated with the indicated concentrations of YT47R (3 h) relative to cells treated with DMSO. […] Statistical significance was calculated with unpaired two-tailed Student's t-tests comparing compound to DMSO treated cells. *P<0.1. […]

T1 sequence (P62942 whole entry): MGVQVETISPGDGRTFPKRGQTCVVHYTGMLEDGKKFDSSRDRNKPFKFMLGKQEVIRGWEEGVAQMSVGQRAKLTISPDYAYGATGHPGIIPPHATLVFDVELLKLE

As for `C=CC(=O)N1C[C@H](c2ccc(C(=O)NCCOCCOCCOCCNC(=O)COc3cccc([C@@H](CCc4ccc(OC)c(OC)c4)OC(=O)[C@@H]4CCCCN4C(=O)C(=O)C(C)(C)CC)c3)cc2)[C@@H]1C(=O)Nc1cccc2cccnc12` [YT47R], the “polyubiquitination of immunoprecipitated HA-FKBP12” value (DCAF1-WT-expressing cells, 5 μM, 2 h, MG132) is listed as “robust polyubiquitination”. Further, the FKBP12 ubiquitination result (HEK293T cells that did not express exogenous DCAF1, versus YT47S) is on record as “increased FKBP12 ubiquitination”.
